From ChEMBL document CHEMBL1148644, “Human PEPT1 pharmacophore distinguishes between dipeptide transport and binding” (J Med Chem, 2006)
Where a SMILES comes first, the peptide text is derived from it. [ ]: non-standard residue; d: D form. Sar = CNCC(=O)O

How the values were obtained:
[1] = target: T1, Solute carrier family 15 member 1 (Homo sapiens, UniProt P46059); assay: Activation of human PEPT1 expressed in MDCK cells; assay type: functional, cell-based
T1 sequence (P46059 whole entry): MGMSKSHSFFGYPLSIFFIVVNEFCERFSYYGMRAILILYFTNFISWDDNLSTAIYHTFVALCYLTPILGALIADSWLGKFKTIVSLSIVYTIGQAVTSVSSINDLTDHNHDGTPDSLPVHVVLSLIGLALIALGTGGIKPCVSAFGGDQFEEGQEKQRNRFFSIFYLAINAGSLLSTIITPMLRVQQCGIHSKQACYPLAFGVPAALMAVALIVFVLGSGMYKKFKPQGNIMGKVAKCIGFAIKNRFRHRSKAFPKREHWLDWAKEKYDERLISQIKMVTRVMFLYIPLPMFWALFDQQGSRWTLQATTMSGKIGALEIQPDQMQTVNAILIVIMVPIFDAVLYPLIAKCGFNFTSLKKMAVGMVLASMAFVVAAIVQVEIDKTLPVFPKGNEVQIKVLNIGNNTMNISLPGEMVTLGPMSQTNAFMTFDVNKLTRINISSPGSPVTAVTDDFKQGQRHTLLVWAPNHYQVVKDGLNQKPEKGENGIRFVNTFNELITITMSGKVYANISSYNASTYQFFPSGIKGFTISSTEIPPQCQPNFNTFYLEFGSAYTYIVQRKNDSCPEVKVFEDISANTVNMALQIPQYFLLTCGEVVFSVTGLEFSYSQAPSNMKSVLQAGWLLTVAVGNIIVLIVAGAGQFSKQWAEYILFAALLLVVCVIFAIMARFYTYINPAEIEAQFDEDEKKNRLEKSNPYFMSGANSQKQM

[2] = target: T1, Solute carrier family 15 member 1; assay: Binding affinity to human PEPT1 assessed as inhibition of [14C]Gly-Sar uptake in MDCK cells; assay type: functional, cell-based; settings: read-out: IC50

| Structure (SMILES) | EC50 [1] [µM] | IC50 [2] [µM] |
| --- | --- | --- |
| O=C(O)[C@H](CO)NC(=O)[C@@H]1CCCN1 (H-Pro-Ser-OH) | 1600 | > 16000 |
| N[C@@H](CO)C(=O)N[C@@H](CO)C(=O)O (H-Ser-Ser-OH) | 140 | 130 |
| C[C@H](NC(=O)[C@@H](N)Cc1c[nH]c2ccccc12)C(=O)O (H-Trp-Ala-OH) | 100 | 260 |
| N[C@@H](Cc1c[nH]c2ccccc12)C(=O)NCC(=O)O (H-Trp-Gly-OH) | 260 | 730 |
| CC(C)[C@H](NC(=O)[C@@H](N)Cc1c[nH]c2ccccc12)C(=O)O (H-Trp-Val-OH) | 50 | 90 |
| NCC(=O)N1CCC[C@H]1C(=O)O [GLYCYL PROLINE] (H-Gly-Pro-OH) | 130 | 330 |
| CC(C)C[C@H](NC(=O)[C@@H](N)CC(C)C)C(=O)O [LEU-LEU] | 80 | 170 |
| CC(C)[C@H](N)C(=O)N[C@@H](Cc1c[nH]c2ccccc12)C(=O)O [VALYLTRYPTOPHAN] (H-Val-Trp-OH) | 40 | 100 |

Continued by falling EC50 [1], values first:

| EC50 [1] [µM] | IC50 [2] [µM] | Structure (SMILES) |
| --- | --- | --- |
| 700 | 800 | O=C(O)[C@@H]1CCCN1C(=O)[C@@H]1CCCN1 (H-Pro-Pro-OH) |
| 540 | 1160 | CN(CC(=O)O)C(=O)CN [GLYCYLSARCOSINE] (H-Gly-[Sar]-OH) |
| 210 | 230 | CC(C)[C@H](N)C(=O)N[C@H](C(=O)N[C@H](C(=O)O)C(C)C)C(C)C (H-Val-Val-Val-OH) |
| 70 | 210 | CC(C)[C@H](N)C(=O)N[C@H](C(=O)O)C(C)C [VAL-VAL] (H-Val-Val-OH) |
| 60 | 60 | N[C@@H](Cc1ccc(O)cc1)C(=O)N[C@@H](Cc1ccc(O)cc1)C(=O)O (H-Tyr-Tyr-OH) |
